Holding throughout (test): inhibition of tumour cell growth, NCI panel, 48 h
In assay [1] the test system is ACHN renal.
Assay [2] deals with CAKI-1 renal.
The subject of assay [3] is DU-145 prostate.
Assay [4] deals with HCC-2998 colon.
For assay [5], the system named is HCT-15 colon.
The test system of assay [6] is MDA-N.
For assay [7], the system named is NCI-H23 lung.
In assay [8] the test system is NCI-H522 lung.
The subject of assay [9] is NCI/ADR-RES ovarian.
Assay [10] relates to OVCAR-3 ovarian.
The subject of assay [11] is OVCAR-5 ovarian.
Assay [12] concerns PC-3 prostate.
Assay [13] has as its system SNB-19 CNS.
For assay [14], the system named is SW-620 colon.
For assay [15], the system named is T-47D breast.
For assay [16], the system named is TK-10 renal.
The subject of assay [17] is U251 CNS.
Assay [18] concerns UACC-62 melanoma.
Assay [19] relates to MDA-MB-231 breast.

Experimental findings from PubChem BioAssay (NCI) are described below.

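Compound exposure: 48 hours, 5 concentrations, 96-well plates. Here, GI50 denotes the concentration required for 50% inhibition of growth. Definition used: TGI = concentration required for complete inhibition of growth.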

`O/N=C1\CC2(N3CCOCC3)CCC1(c1ccccc1)CC2`: the TGI in assay [1], in assay [2], in assay [3], in [4], in assay [5] and in [6] was above 100 µM throughout. In addition, the TGI in assay [7], in assay [8], in assay [9], in [10], in assay [11] and in [12] was above 100 µM in each case. Besides, the TGI in assay [13], in [14], in [15], in assay [16], in assay [17] and in [18] was above 100 µM throughout.
Take `CC(C)=Cc1cc(C)c2c3c(c(O)c(O)c(C)c13)C(C)=CC2=O`: the TGI in assay [1] is 56.2 µM; in assay [2] it was 58.5 µM; in assay [3], 89 µM; in [5] it was 51.3 µM; in assay [19] it was 64.4 µM; in [6], above 100 µM. For the same compound, the TGI is 64.5 µM in [7]; 41.2 µM in assay [8]; 81.5 µM in [9]; 52.7 µM in [10]; 73.3 µM in assay [11]; above 100 µM in assay [12]. In addition, the TGI is above 100 µM in assay [13]; above 100 µM in [14]; 49.3 µM in assay [15]; 92 µM in assay [17]; 50.8 µM in assay [18].
Consider `C=C(Cl)/C(=C\Cl)CCC(Cl)C(C)C` (stereo not given), for which the TGI in [1], in [2], in [3], in assay [4], in assay [19] and in assay [6] was above 100 µM throughout. Also, the TGI in assay [7], in assay [8], in assay [9], in assay [10], in [11] and in [12] was above 100 µM each time. Moreover, the TGI in assay [13], in assay [14], in assay [16], in assay [17] and in [18] was above 100 µM throughout.
As to `CC[C@H](C)C1=C(OC(C)=O)[N@+]2([O-])Oc3ccc(-c4c(O)c(O)c(-c5ccc(OC(C)=O)cc5)c(OC(C)=O)c4OC(C)=O)cc3O[C@]2([C@@H](C)CC)C(=O)N1O`, the TGI in assay [1], in assay [2], in assay [3], in [5], in assay [19] and in assay [6] was above 50 µM each time. For the same compound, the TGI in assay [7] is above 50 µM; in assay [8] it was 22.2 µM; in assay [9] it was above 50 µM; in assay [10], 37.5 µM; in assay [11] it was above 50 µM; in [12] it was above 50 µM. Further, the TGI in [13] is above 50 µM; in [14], 34.5 µM; in assay [15], 37.7 µM; in assay [16] it was above 50 µM; in assay [17] it was above 50 µM; in assay [18], 46.9 µM.
In the case of `COC(=O)c1cc(OS(=O)(=O)C(F)(F)F)c(=O)n2c1CCCC2`, the TGI in [1], in assay [2], in assay [3], in assay [5], in assay [19] and in assay [6] was above 100 µM throughout. Moreover, the TGI in assay [7], in [8], in assay [9], in assay [11], in [12] and in assay [13] was above 100 µM each time. The TGI in assay [14], in assay [15], in assay [16], in [17] and in [18] was above 100 µM throughout.
For the compound `COC(=O)c1c(C)[nH]c2c1C(=O)C(=O)c1nc(C)c(C)nc1-2`, the TGI in assay [1] is 47.3 µM; in assay [2], above 100 µM; in [3], 25.5 µM; in [4], 24 µM; in [5], above 100 µM; in [6], 19.9 µM. For the same compound, the TGI in [7] came out at 36.9 µM; in [8] it was 21.4 µM; in [9], 78.1 µM; in [10], 23.3 µM; in assay [11] it was 27.6 µM; in assay [12] it was 29.3 µM. For the same compound, the TGI turned out to be 27.4 µM in assay [13]; 41.7 µM in assay [14]; 9.55 µM in assay [15]; 9.68 µM in assay [16]; 18.4 µM in assay [17]; 18.9 µM in assay [18].
As for `O=C(Nn1c(-c2cccs2)nc2ccc(I)cc2c1=O)c1ccccc1`, the TGI in [1] is above 100 µM; in [2], 51 µM; in [3], 46.7 µM; in [4], 58.6 µM; in [5], above 100 µM; in [6], above 100 µM. Besides, the TGI is 67.4 µM in assay [7]; 59.5 µM in assay [8]; above 100 µM in assay [9]; 39.3 µM in assay [10]; above 100 µM in [11]; above 100 µM in [12]. For the same compound, the TGI in assay [13] is 64.5 µM; in assay [14], above 100 µM; in [15], 37.6 µM; in [16], 63.1 µM; in assay [17], 73.1 µM; in assay [18], 57.3 µM. Also, the GI50 in [15] was 11.1 µM.
For the compound `O=C1c2c(ccc3c2CCC3)CC1Cc1ccc2c(c1)CCC2` (stereo not given), the TGI in [1] was above 100 µM; in [3], above 100 µM; in assay [4], above 100 µM; in [5], above 100 µM; in assay [19] it was 49 µM; in assay [6], above 100 µM. Moreover, the TGI is 85.9 µM in assay [7]; above 100 µM in assay [9]; above 100 µM in assay [10]; above 100 µM in [11]; above 100 µM in [13]; above 100 µM in [14]. The TGI in assay [15] is 27 µM; in assay [16], above 100 µM; in assay [17] it was above 100 µM; in [18] it was 42.7 µM.
